Test results taken from ChEMBL document CHEMBL4390706, “Chemical constituents from the seeds of Cassia obtusefolia and their in vitro α-glucosidase inhibitory and antioxidant activities” (Bioorg Med Chem Lett, 2019).
Values after ≈ are worked out from the molar mass of the structure shown.

Tests used:
[1] = Inhibition of baker's yeast alpha-glucosidase using PNPG as substrate preincubated for 15 mins followed by substrate addition and measured after 15 mins; design: species or system Saccharomyces cerevisiae
[2] = Antioxidant activity assessed as DPPH radical scavenging activity incubated for 30 mins under dark condition; type: functional

| Structure (SMILES) | IC50 [1] [µg/mL] | IC50 [2] [µg/mL] |
| --- | --- | --- |
| COc1c(O)cc2c(c1O)C(=O)c1c(cc(C)c(O)c1OC)C2=O [AURANTIOOBTUSIN] | 107.81 (≈ 326 µM) | – |
| COc1cc(O)c2c(c1)C(=O)c1cc(C)cc(O)c1C2=O [PHYSCION] | 22.57 (≈ 79.4 µM) | – |
| COc1ccc2c(c1O)C(=O)c1c(cc(C)c(O)c1OC)C2=O | 183.91 (≈ 585 µM) | – |
| Cc1cc(O)c2c(c1)C(=O)c1cccc(O)c1C2=O [CHRYSOPHANOL] | 50.6 (≈ 199 µM) | – |
| Cc1cc(O)c2c(c1)C(C1c3cccc(O)c3C(=O)c3c(O)cc(C)cc31)c1cccc(O)c1C2=O (stereo not given) | 60.09 (≈ 126 µM) | – |
| COc1cc(O)c2c(O)c3c(=O)oc(C)cc3cc2c1 | 80.01 (≈ 294 µM) | 78.4 (≈ 288 µM) |
| COc1cc(O)c2c(O)c3c(=O)cc(C)oc3cc2c1 [RUBROFUSARIN] | 162.04 (≈ 595 µM) | 3.03 (≈ 11.1 µM) |
| COc1cc2c(c(O)c1OC)C(=O)c1c(cc(C)c(OC)c1OC)C2=O | 164.81 (≈ 460 µM) | – |
| O=C1O[C@H]([C@@H](O)CO)C(O)=C1O [ASCORBIC ACID] | – | 6.48 (≈ 36.8 µM) |
| C[C@H]1O[C@H](O[C@H]2[C@H](O)[C@@H](O)[C@@H](O[C@H]3[C@H](O)[C@@H](O)C(O)O[C@@H]3CO)O[C@@H]2CO)[C@H](O)[C@@H](O)[C@@H]1N[C@H]1C=C(CO)[C@@H](O)[C@H](O)[C@H]1O (stereo not given in full) [ACARBOSE] | < 5.05 | – |
| COc1cc(O)cc2c1C(=O)c1c(O)cc(C)cc1C2=O [QUESTIN] | 117.94 (≈ 415 µM) | – |
| COc1c(C)cc2c(c1O)C(=O)c1c(cc(O)c(OC)c1O)C2=O | 120.65 (≈ 365 µM) | – |
| COc1c(O)c(C)cc2c1C(=O)c1c(O)cccc1C2=O [OBTUSIFOLIN] | 144.64 (≈ 509 µM) | – |
